Data set [1] in a line: Single-dose pharmacokinetic profile. In kind it is in vivo, mice. The following applies: male, mouse, plasma; for Cmax / half-life: 10 mg/kg. The procedure:
The male mice were received with a small molecule N106 at 10 mg kg^−1 intravenously and 10 mg kg^−1 orally (PO). The bloods were corrected at 30 min, 1, 2 and 4 h after administration intravenously and at 30 min, 1, 2 and 4 h after treatment for oral administration studies. Plasma samples from these studies were extracted by plasma separator tube containing lithium heparin (BD Microcontainer, NJ, USA). Plasma concentrations of N106 were determined by HPLC analysis and pharmacokinetic parameters. Three mice for each time point were used.
Supplementary Figure 13. Pharmacokinetic profile of N106 following administration to mice. The murine PK profile of single dose of N106 (10 mg.kg-1) was determined following intravenously (IV) and oral (PO) administration and analysis of plasma samples was performed by high performance liquid chromatography. Data represents mean value of N106 plasma concentrations in mice. n = 3 mice per each time point. Cmax, maximum concentration; T ½, half time; Tmax, time to peak concentration.

Data set [2] concerns NCI-60 human tumour cell lines. Briefly: NCI-60 human tumour cell screen (sulforhodamine B). Type of data set: cell-based. The following applies: single dose 10^-5 M, 48 hours, 60 tumor cell panels incl. MDA-MB-231. The source says:
One concern about an agent that enhances SUMOylation is off-target effects including tumour growth. Several studies reported direct involvement of SUMO E1 in the setting of cancer. In patients with hepatocellular carcinoma, UBA2 gene expression was higher and directly correlated with lower survival rate[25]. SUMO E1 was also reported to be an important factor for myc-dependent tumour growth in mice and there is a correlation between low SUMO E1 gene expression and longer metastasis-free survival rate of patients with myc-high breast cancers. Thus, we sought to determine whether N106 would have an effect on cancer cell growth. We performed the NCI-60 human tumour cell screen used by the National Cancer Institute’s Developmental Therapeutics Program (http://dtp.cancer.gov/docs/compare/compare.html). The NCI-60 set includes leukemia, lymphomas and carcinomas of ovarian, renal, breast, prostate, colon, lung and central nervous system origin.
Supplementary Figure 12. NCI 60 cell screening. N106 submitted to the NCI 60 cell screen
has been tested initially at a single high dose of 10^-5 M in 60 different tumor cell panels. 48 hours
after compound treatment, cell density and proliferation was determined by sulforhodamine B

“Also recorded” adds a separate entry of the source. Like-named read-outs stand apart in the source and are kept apart here.

On to `COc1ccc(-c2nnc(Nc3nc4c(OC)cccc4s3)o2)cc1` [Compound N106, N-(4-methoxybenzo[d]thiazol-2-yl)-5-(4-methoxyphenyl)-1,3,4-oxadiazol-2-amine], for which the Cmax (usually the maximum level reached in the sampled fluid or tissue) in data set [1] (iv, mice, 10 mg kg^−1 intravenous) amounted to 2240 nM; in data set [1] (po, mice, 10 mg kg^−1 oral), 457 nM. For the same compound, the half-life in data set [1] (iv, mice, 10 mg kg^−1 intravenous, read-out: half-life) worked out at 65.4 min; in data set [1] (po, mice, 10 mg kg^−1 oral, read-out: terminal elimination half-life (t1/2)) it was 19 min. For the same compound, the bioavailability (in general, the share of a dose that reaches the circulation, judged against a reference dose that is usually intravenous) in data set [1] (oral, 10 mg kg^−1, mice, 10 mg kg^−1 PO vs IV, read-out: oral bioavailability (F%)) is 56%. In data set [1] (mice, 10 mg kg^−1 oral), the Tmax (as a rule, the time from dosing to the highest level) was 30 min. Moreover, in data set [2], the “tumour cell growth and proliferation” value is “has not shown any significant oncogenic activity; also recorded: did not induce any tumour cell growth and proliferation”.
